Tests used:
[1] = molecular target: T1, androgen receptor LBD (Panvera) (Rattus norvegicus, UniProt P15207); assay: Androgen Receptor Filtration Binding Assay (PANVERA); conditions: [3H] R1881 tracer
T1 construct: 5 pmol androgen receptor LBD (Panvera); purchased Panvera
T1 sequence (P15207 651-882 limits assumed): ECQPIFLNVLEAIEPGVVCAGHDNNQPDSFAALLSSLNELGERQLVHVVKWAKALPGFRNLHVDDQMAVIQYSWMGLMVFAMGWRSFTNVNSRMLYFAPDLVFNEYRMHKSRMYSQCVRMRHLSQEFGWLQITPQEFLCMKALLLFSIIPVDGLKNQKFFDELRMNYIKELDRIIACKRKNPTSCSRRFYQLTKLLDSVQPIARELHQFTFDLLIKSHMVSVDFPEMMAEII
Protocol: The assay was run on a 96 well plate with each well filled with a total reaction volume 150 μL, of a solution containing 5 pmol androgen receptor LBD (Panvera) or 30 μL of freshly prepared rat cytosol, 0.5 nM [^3H] […] (TED buffer contains 10 mM Tris.HCl pH 7.4, 1 mM sodium molybdate, 1.5 mM EDTA, 1 mM DTT and 10% (v/v) glycerol.)
On day one, the solution containing receptor, tracer and TED buffer was distributed into a 96 well plate. Diluted test compound or control vehicle was then added to individual wells and the plate incubated at 4° C. overnight.
On day two, to each well was then added 20 μL human γ-globulin (ICN 823102), prepared at 25 mg/ml in TE pH 8.0, and 55 μL 40% polyethylene glycol 8000 (JT Baker U222-08), prepared in TE pH 8.0. The plate was incubated at 4° C. for 60 minutes. During incubation, the harvester was rinsed with 10% PEG 8000, prepared in TE pH 8.0, and a GF/C Unifilter-96 was pre-wet with 10% PEG. The binding reaction was filtered, the retentate was washed three times with 10% PEG and dried under vacuum for a couple of minutes, then dried at 50° C. for 5 min and the plate was bottom sealed. Next, 25 μL of Microscint-20 (Packard) was added to the filter wells and the plate was top sealed. The plate wells were then counted on a TopCount (Packard).
Counts per well were measured and IC50s determined by linear regression.

androgen receptor = molecular target: T2, androgen receptor (Rattus norvegicus, UniProt P15207); assay: Androgen Receptor Binding Using Rat Ventral Prostate Cytosol; parameters: from tissue; host or cells: ventral prostate cytosol of castrated male Sprague Dawley or Wistar rats; conditions: Rat Cytosol; Concentration 1000 nM
T2 sequence (P15207 1-902): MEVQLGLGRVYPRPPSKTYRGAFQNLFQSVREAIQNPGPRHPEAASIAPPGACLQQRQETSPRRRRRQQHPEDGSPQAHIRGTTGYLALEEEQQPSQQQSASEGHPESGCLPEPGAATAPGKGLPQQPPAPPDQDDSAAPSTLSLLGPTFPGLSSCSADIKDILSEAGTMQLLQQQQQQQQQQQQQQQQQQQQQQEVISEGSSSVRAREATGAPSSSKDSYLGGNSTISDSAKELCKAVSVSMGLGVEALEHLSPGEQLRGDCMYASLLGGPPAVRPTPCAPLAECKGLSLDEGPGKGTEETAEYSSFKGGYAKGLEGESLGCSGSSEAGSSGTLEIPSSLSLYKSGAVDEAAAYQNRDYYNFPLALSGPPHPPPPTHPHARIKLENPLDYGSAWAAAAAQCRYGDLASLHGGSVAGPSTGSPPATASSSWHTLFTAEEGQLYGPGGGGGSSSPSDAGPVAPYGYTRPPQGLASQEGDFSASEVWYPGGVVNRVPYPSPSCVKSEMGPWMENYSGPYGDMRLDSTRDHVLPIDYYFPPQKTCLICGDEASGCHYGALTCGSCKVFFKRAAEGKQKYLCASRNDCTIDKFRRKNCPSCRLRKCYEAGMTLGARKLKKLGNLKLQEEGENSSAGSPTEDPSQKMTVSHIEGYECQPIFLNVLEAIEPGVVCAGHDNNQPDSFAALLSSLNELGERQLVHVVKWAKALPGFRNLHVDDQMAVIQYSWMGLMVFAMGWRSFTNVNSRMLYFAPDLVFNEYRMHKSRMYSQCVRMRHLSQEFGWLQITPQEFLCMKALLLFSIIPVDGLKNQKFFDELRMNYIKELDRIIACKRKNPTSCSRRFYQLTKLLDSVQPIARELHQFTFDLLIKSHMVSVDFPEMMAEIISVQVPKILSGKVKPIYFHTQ
Protocol: Rat Prostate Cytosol Preparation:
Male Sprague Dawley or Wistar rats (Charles River, 200-300 g) were used for each preparation. The day before preparing the cytosol, the rats were castrated using standard surgical procedures.
The rats were euthanized by carbon dioxide asphyxiation. The rat prostates were quickly removed and placed on ice in pre-chilled, pre-weighed 50 mL plastic tubes. No more than five prostates were placed into one tube. The tubes were then weighed and the prostate tissue wet weights calculated.
To the chilled prostate tissue was then added […] of chilled homogenization buffer. The homogenization buffer was freshly prepared by mixing 10 mM Tris.HCl, pH 7.4, 1 mM sodium molybdate, 1.5 mM EDTA, 1 mM dithiothreitol, 10% (v/v) glycerol and 1% protease inhibitor cocktail (Sigma P 8340).
The prostate tissue was homogenized in a cold room using a pre-chilled Polytron PT3000 homogenizer (Brinkmann). Homogenization was performed at a speed setting of 20, three times for 10 sec bursts. The tubes containing the prostate tissue was kept on ice while homogenizing. The homogenate was allowed to rest on ice for 20 sec between bursts.
The homogenate was then placed into pre-chilled 3 mL polycarbonate ultracentrifuge tubes and centrifuged in the TLA-100 rotor of a TL-100 ultracentrifuge for 12 min at 100,000 rpm at 4° C. The resulting supernatant was stored in 1 mL aliquots at −80° C. until needed.
Binding to the androgen receptor was determined according to the protocol described in Example 86 using the above prepared rat cytosol.
% Inhibition was determined by testing dilutions of the test compound (usually duplicates of 10 μM) in the binding assay. Counts per well were measured and percents of inhibition determined. […] Counts per well were measured and IC50s determined by linear regression.

For `Cc1ccc(C(=O)OCC(C)(O)c2cc3cc([N+](=O)[O-])c(C(F)(F)F)cc3[nH]2)cc1` (racemic) [compound 69], the IC50 [1] was 1200 nM and the “% Inhibition” value (androgen receptor) was 31%.
